From the NIST ThermoML archive (doi:10.1021/je900278v)

How the values were obtained:
[1] = 101 kPa, Liquid; for viscosity: 293.15 K, Capillary tube (Ostwald / Ubbelohde) method; for mass density: 298.15 K
[2] = xn = mol fraction of the nth substance listed; conditions: 101 kPa, Liquid; for viscosity: 293.15 K, Capillary tube (Ostwald / Ubbelohde) method; for mass density: 298.15 K

BrCCBr [1,2-dibromoethane]
[1]
Conditions | mass density [kg/m3] | viscosity [mPa·s]
– | 2179.59 | 1.733

BrCCBr [1,2-dibromoethane] + CCCCCCO
[2]
Conditions | mass density [kg/m3] | viscosity [mPa·s]
x1 = 0.0402 | 856.608 | 4.925
x1 = 0.0682 | 883.413 | 4.703
x1 = 0.1276 | 941.916 | 4.275
x1 = 0.2056 | 1022.36 | 3.781
x1 = 0.2686 | 1090.47 | 3.412
x1 = 0.3892 | 1228.97 | 2.862
x1 = 0.4277 | 1276.43 | 2.711
x1 = 0.5444 | 1427.13 | 2.325
x1 = 0.6405 | 1562 | 2.07
x1 = 0.7326 | 1701.64 | 1.877
x1 = 0.8519 | 1899.69 | 1.726
x1 = 0.9273 | 2036.52 | 1.69
x1 = 0.9587 | 2096.51 | 1.692
x1 = 0.9782 | 2135.29 | 1.71
x1 = 1 | 2179.59 | 1.733

ClCCCl [1,2-dichloroethane]
[1]
Conditions | mass density [kg/m3] | viscosity [mPa·s]
– | 1252.77 | 0.827

ClCCCl [1,2-dichloroethane] + CCCCCCO
[2]
Conditions | mass density [kg/m3] | viscosity [mPa·s]
x1 = 0.037 | 828.769 | 5.008
x1 = 0.0769 | 839.847 | 4.696
x1 = 0.1499 | 860.583 | 4.191
x1 = 0.2147 | 879.725 | 3.787
x1 = 0.2935 | 904.954 | 3.292
x1 = 0.3952 | 940.475 | 2.726
x1 = 0.4532 | 962.107 | 2.405
x1 = 0.5596 | 1005.05 | 1.894
x1 = 0.6113 | 1027.55 | 1.677
x1 = 0.6971 | 1067.98 | 1.372
x1 = 0.7791 | 1111.06 | 1.137
x1 = 0.8563 | 1155.16 | 0.977
x1 = 0.9335 | 1205.43 | 0.873
x1 = 0.979 | 1236.99 | 0.833
x1 = 1 | 1252.77 | 0.827

CCCCCCO [hexan-1-ol]
[1]
Conditions | mass density [kg/m3] | viscosity [mPa·s]
– | 818.856 | 5.291

CCCCCCO [hexan-1-ol] + BrCCBr
[2], x2 = 0
Conditions | mass density [kg/m3] | viscosity [mPa·s]
– | 818.856 | 5.291

CCCCCCO [hexan-1-ol] + ClC(Cl)=C(Cl)Cl
[2], x2 = 0
Conditions | mass density [kg/m3] | viscosity [mPa·s]
– | 818.856 | 5.291

CCCCCCO [hexan-1-ol] + ClCCCl
[2], x2 = 0
Conditions | mass density [kg/m3] | viscosity [mPa·s]
– | 818.856 | 5.291

ClC(Cl)=C(Cl)Cl [tetrachloroethene]
[1]
Conditions | mass density [kg/m3] | viscosity [mPa·s]
– | 1622.74 | 0.89

ClC(Cl)=C(Cl)Cl [tetrachloroethene] + CCCCCCO
[2]
Conditions | mass density [kg/m3] | viscosity [mPa·s]
x1 = 0.0688 | 864.637 | 4.756
x1 = 0.123 | 901.521 | 4.351
x1 = 0.2457 | 987.759 | 3.493
x1 = 0.3618 | 1072.99 | 2.772
x1 = 0.4502 | 1140.46 | 2.308
x1 = 0.5583 | 1226.3 | 1.853
x1 = 0.6518 | 1303.62 | 1.534
x1 = 0.7068 | 1350.53 | 1.382
x1 = 0.7419 | 1381.18 | 1.297
x1 = 0.7797 | 1414.65 | 1.213
x1 = 0.8315 | 1461.44 | 1.116
x1 = 0.8718 | 1498.8 | 1.051
x1 = 0.9179 | 1542.25 | 0.982
x1 = 0.9504 | 1573.61 | 0.942
x1 = 1 | 1622.74 | 0.89
